Experimental data from US8134004B2, “Substituted N-bicyclicalkyl bicycliccarboxyamide compounds” (Pfizer Inc., priority 2006, dated 2012).
Counter-ions that a name gives are not always drawn.

Target: human VR1 (Homo sapiens, UniProt Q8NER1)
Assay: Human VR1 antagonist assay (Ca2+ imaging)
Type: cell-based
Conditions: Ca2+ imaging assay using human VR1 highly expressing cells, fura-2/AM; agonist stimulation (capsaicin 300 nM or acid pH 5.8), not given
From the text: Human VR1 Antagonist Assay
VR1 antagonistic activity can be determined by the Ca^2+ imaging assay using human VR1 highly expressing cells. The cells that highly express human VR1 receptors are obtainable from several different conventional methods. The one standard method is cloning from human Dorsal Root Ganglion (DRG) or kidney according to the methods such as described in the journal article; Nature, 389, pp 816-824, 1997. Alternatively VR1 receptors highly expressing human keratinocytes are also known and published in the journal article (Biochemical and Biophysical Research Communications, 291, pp 124-129, 2002). […] Furthermore, the method to up regulate human VR1 gene, which is usually a silent gene or don't produce detectable level of VR1 receptors, is also available to obtain propriety cells. Such genetic modification method was described in detail; Nat. Biotechnol., 19, pp 440-445, 2001.
The cells that express human VR1 receptors were maintained in culture flask at 37° C. in an environment containing 5% CO2 until use in the assay. The intracellular Ca^2+ imaging assay to determine VR1 antagonistic activities were done by following procedures.
The culture medium was removed from the flask and fura-2/AM fluorescent calcium indicator was added to the flask at a concentration of 5 μM in the medium. The flask was placed in CO2 incubator and incubated for 1 hour. Then the cells expressing the human VR1 receptors were detached from the flask follow by washing with phosphate buffer saline, PBS(−) and re-suspended in assay buffer. The 80 μl of aliquot of cell suspension (3.75×10^5 cells/ml) was added to the assay plate and the cells were spun down by centrifuge (950 rpm, 20° C., 3 minutes).
The compounds of the examples were tested in the Human VR1 antagonist assay described above.
The capsaicin-induced changes in the intracellular calcium concentration were monitored using FDSS 6000 (Hamamatsu Photonics, Japan), a fluorometric imaging system. The cell suspension in Krebs-Ringer HEPES (KRH) buffer (115 mM NaCl, 5.4 mM KCl, 1 mM MgSO4, 1.8 mM CaCl2, 11 mM D-Glucose, 25 mM HEPES, 0.96 mM Na2HPO4, pH 7.3) were pre-incubated with varying concentrations of the test compounds or KRH buffer (buffer control) for 15 minutes at room temperature under the dark condition. Then capsaicin solution, which gives 300 nM in assay mixture, was automatically added to the assay plate by the FDSS 6000.
The Acid-induced changes in the intracellular calcium concentration were monitored using FDSS 6000 (Hamamatsu Photonics, Japan), a fluorometric imaging system. The cell suspension in resting buffer (HBSS supplemented with 10 mM HEPES, pH 7.4) were pre-incubated with varying concentrations of the test compounds or resting buffer (buffer control) for 15 minutes at room temperature under the dark condition. The cells were automatically added the stimulating solution (HBSS supplemented with MES, final assay buffer pH5.8) by the FDSS 6000.
The monitoring of the changes in the fluorescence signals (λex=340 nm/380 nm, λem=510-520 nm) was initiated at 1 minute prior to the addition of capsaicin solution or acidic buffer and continued for 5 minute.

human VR1, sequence (Q8NER1 whole entry): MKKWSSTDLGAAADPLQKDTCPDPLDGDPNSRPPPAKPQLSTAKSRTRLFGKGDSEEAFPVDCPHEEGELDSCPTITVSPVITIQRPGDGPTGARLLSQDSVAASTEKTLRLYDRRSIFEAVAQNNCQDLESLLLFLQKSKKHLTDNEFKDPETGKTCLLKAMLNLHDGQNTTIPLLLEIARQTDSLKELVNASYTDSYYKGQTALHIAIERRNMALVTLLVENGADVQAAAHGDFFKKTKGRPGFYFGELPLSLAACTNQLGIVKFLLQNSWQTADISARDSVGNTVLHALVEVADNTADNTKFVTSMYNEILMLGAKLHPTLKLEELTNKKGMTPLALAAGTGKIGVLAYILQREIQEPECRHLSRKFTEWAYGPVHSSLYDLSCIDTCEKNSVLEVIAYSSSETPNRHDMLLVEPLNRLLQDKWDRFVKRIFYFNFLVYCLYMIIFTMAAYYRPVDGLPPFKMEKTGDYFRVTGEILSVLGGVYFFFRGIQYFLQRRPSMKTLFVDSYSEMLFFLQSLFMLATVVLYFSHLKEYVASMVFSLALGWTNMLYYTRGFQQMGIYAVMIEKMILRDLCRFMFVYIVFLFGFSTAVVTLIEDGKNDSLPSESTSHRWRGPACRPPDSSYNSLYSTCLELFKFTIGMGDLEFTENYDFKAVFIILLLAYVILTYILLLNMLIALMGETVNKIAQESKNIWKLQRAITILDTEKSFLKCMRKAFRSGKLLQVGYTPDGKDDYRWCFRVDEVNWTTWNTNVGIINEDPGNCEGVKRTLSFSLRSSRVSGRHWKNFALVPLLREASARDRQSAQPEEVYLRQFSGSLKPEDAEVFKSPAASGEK

SMILES | IC50 [nM]
C[C@@H](NC(=O)c1ccc2cc(C(C)(C)C)ccc2n1)c1ccnc2ccccc12 (single isomer, unassigned) [Example B7, 6-tert-butyl-N-(1-quinolin-4-ylethyl)quinoline-2-carboxamide] | 132
C[C@@H](NC(=O)c1ccc2nc(C(C)(C)C(F)(F)F)ccc2c1)c1ccnc2ccccc12 (single isomer, unassigned) [Example C13] | 49.8
C[C@@H](NC(=O)c1ccc2cc(C(C)(C)C)ccc2c1)c1ccc2nn[nH]c2c1 [Example A1, N-[(1R)-1-(1H-1,2,3-benzotriazol-6-yl)ethyl]-6-tert-butyl-2-naphthamide] | 17.9
CC(C)(C)c1ccc2cc(C(=O)NCc3ccnc4ccccc34)ccc2c1 [Example A2] | 17
CC(C)(C)c1ccc2cc(C(=O)NCc3ccc4c(c3)CN=N4)ccc2c1 [Example A3, 6-tert-butyl-N-(3H-indazol-5-ylmethyl)-2-naphthamide] | 61.6
CC(NC(=O)c1ccc2cc(C(C)(C)C)ccc2c1)c1ccc2c(c1)CC(=O)N2 (stereo not drawn) [Example A4, 6-tert-butyl-N-[1-(2-oxo-2,3-dihydro-1H-indol-5-yl)ethyl]-2-naphthamide] | 85.7
CC(NC(=O)c1ccc2cc(C(C)(C)C)ccc2c1)c1ccc2[nH]ncc2c1 (stereo not drawn) [Example A5, 6-tert-butyl-N-[1-1H-indazole-5-ylethyl]-2-naphthamide] | 16.4
COC(C)(c1ccc2cc(C(=O)NCc3ccnc4ccccc34)ccc2c1)C(F)(F)F (stereo not drawn) [Example A6, N-(quinolin-4-ylmethyl)-6-(1,1,1-trifluoro-2-methoxypropan-2-yl)-2-naphthamide] | 52
CC1(c2ccc3cc(C(=O)NCc4ccnc5ccccc45)ccc3c2)CC1 [Example A7, 6-(1-methylcyclopropyl)-N-(quinolin-4-ylmethyl)-2-naphthamide] | 140
O=C(NCc1ccnc2ccccc12)c1ccc2cc(C3CC3)ccc2c1 [Example A8, 6-cyclopropyl-N-(quinolin-4-ylmethyl)-2-naphthamide] | 410
C[C@@H](NC(=O)c1ccc2cc(C(C)(O)C(F)(F)F)ccc2c1)c1ccnc2ccccc12 (stereo partly drawn) [Example A9, N-[(1R)-1-quinolin-4-ylethyl]-6-(2,2,2-trifluoro-1-hydroxy-1-methylethyl)-2-naphthamide] | 382
C[C@@H](NC(=O)c1ccc2cc(C(C)(C)C)ccc2n1)c1ccc2[nH]nnc2c1 [Example B1, N-[(1R)-1-(1H-1,2,3-benzotriazol-6-yl)ethyl]-6-tert-butylquinoline-2-carboxamide] | 9.45
CC[C@@H](NC(=O)c1ccc2cc(C(C)(C)C)ccc2n1)c1ccc2[nH]nnc2c1 [Example B2, N-[(1R)-1-(1H-1,2,3-benzotriazol-6-yl)propyl]-6-tert-butylquinoline-2-carboxamide] | 158
CC(C)(C)c1ccc2nc(C(=O)NCc3ccnc4ccccc34)ccc2c1 [Example B3, 6-tert-butyl-N-(quinolin-4-ylmethyl)quinoline-2-carboxamide] | 117
CC(NC(=O)c1ccc2cc(C(C)(C)C)ccc2n1)c1ccnc2ccccc12 (stereo not drawn) [Example B5, 6-tert-butyl-N-(1-quinolin-4-ylethyl)quinoline-2-carboxamide hydrochloride] | 204
CC(C)(C)c1ccc2nc(C(=O)NCc3ccc4[nH]nnc4c3)ccc2c1 [Example B6, N-(1H-1,2,3-benzotriazol-5-ylmethyl)-6-tert-butylquinoline-2-carboxamide] | 18.7
C[C@@H](NC(=O)c1ccc2nc(C(C)(C)C)ccc2c1)c1ccc2[nH]nnc2c1 [Example C1, N-[(1R)-1-(1H-1,2,3-benzotriazol-6-yl)ethyl]-2-tert-butylquinoline-6-carboxamide] | 39.2
C[C@@H](NC(=O)c1ccc2nc(C(C)(C)C)ccc2c1)c1ccc2[nH]c(=O)[nH]c2c1 [Example C2, 2-tert-butyl-N-[(1R)-1-(2-oxo-2,3-dihydro-1H-benzimidazol-6-yl)ethyl]quinoline-6-carboxamide] | 142
CC(NC(=O)c1ccc2nc(C(C)(C)C)ccc2c1)c1ccc2c(c1)CC(=O)N2 (stereo not drawn) [Example C3, 2-tert-butyl-N-[1-(2-oxo-2,3-dihydro-1H-indol-5-yl)ethyl] quinoline-6-carboxamide] | 242
CC(NC(=O)c1ccc2nc(C(C)(C)C(F)(F)F)ccc2c1)c1ccc2[nH]ncc2c1 (stereo not drawn) [Example C4, N-[1-1H-indazole-5-ylethyl]-2-(2,2,2-trifluoro-1,1-dimethylethyl)quinoline-6-carboxamide] | 23
CC(C)(c1ccc2cc(C(=O)NCc3ccnc4ccccc34)ccc2n1)C(F)(F)F [Example C5, N-(quinolin-4-ylmethyl)-2-(2,2,2-trifluoro-1,1-dimethylethyl) quinoline-6-carboxamide] | 72
CC(C)(c1ccc2cc(C(=O)NCc3cccc4cnccc34)ccc2n1)C(F)(F)F [Example C7, N-(isoquinolin-5-ylmethyl)-2-(2,2,2-trifluoro-1,1-dimethylethyl) quinoline-6-carboxamide] | 27
Cc1cc(CNC(=O)c2ccc3nc(C(C)(C)C(F)(F)F)ccc3c2)c2ccccc2n1 [Example C8, N-[(2-methylquinolin-4-yl)methyl]-2-(2,2,2-trifluoro-1,1-dimethylethyl)quinoline-6-carboxamide] | 351
CC(NC(=O)c1ccc2nc(C(C)(C)C(F)(F)F)ccc2c1)c1ccc2[nH]c(=O)[nH]c2c1 (stereo not drawn) [Example C9, N-[1-(2-oxo-2,3-dihydro-1H-benzimidazol-5-yl)ethyl]-2-(2,2,2-trifluoro-1,1-dimethylethyl)quinoline-6-carboxamide] | 151
CC(NC(=O)c1ccc2nc(C(C)(C)C(F)(F)F)ccc2c1)c1ccc2c(c1)CC(=O)N2 (stereo not drawn) [Example C10, N-[1-(2-oxo-2,3-dihydro-1H-indol-5-yl)ethyl]-2-(2,2,2-trifluoro-1,1-dimethylethyl)quinoline-6-carboxamide] | 274
CC(C)(c1ccc2cc(C(=O)NCc3ccnc4ccc(F)cc34)ccc2n1)C(F)(F)F [Example C11, N-[(6-fluoroquinolin-4-yl)methyl]-2-(2,2,2-trifluoro-1,1-dimethylethyl)quinoline-6-carboxamide] | 173
CC(C)(c1ccc2cc(C(=O)NCc3ccnc4c(F)cc(F)cc34)ccc2n1)C(F)(F)F [Example C12, N-[(6,8-difluoroquinolin-4-yl)methyl]-2-(2,2,2-trifluoro-1,1-dimethylethyl)quinoline-6-carboxamide] | 266
Cc1ccc2nccc(CNC(=O)c3ccc4nc(C(C)(C)C(F)(F)F)ccc4c3)c2c1 [Example C14, N-[(6-methylquinolin-4-yl)methyl]-2-(2,2,2-trifluoro-1,1-dimethylethyl)quinoline-6-carboxamide] | 422
C[C@@H](NC(=O)c1ccc2nc(C(C)(O)C(F)(F)F)ccc2c1)c1ccnc2ccccc12 (stereo partly drawn) [Example C15, N-[(1R)-1-quinolin-4-ylethyl]-2-(2,2,2-trifluoro-1-hydroxy-1-methylethyl)quinoline-6-carboxamide] | 316
Cc1cccc2c(CNC(=O)c3ccc4nc(C(C)(C)C(F)(F)F)ccc4c3)ccnc12 [Example C16, N-[(8-methylquinolin-4-yl)methyl]-2-(2,2,2-trifluoro-1,1-dimethylethyl)quinoline-6-carboxamide] | 437
